Measured values: patent US20080269213A1, “8-Hydroxyquinoline compounds and methods thereof” (Wyeth, priority 2006, published 2008)
Read-outs that look alike come from different tables or passages of the source.

Experiments:
[1] = target: T1, recombinant human Aggrecanase-2 Agg2-Phe628 (Homo sapiens, UniProt Q9UNA0); test: Aggrecanase 2 in vitro enzyme assay (Agg-2 FRET, quenched fluorescent peptide substrate); format: biochemical; parameters: purified recombinant human Aggrecanase-2 Agg2-Phe628 (MW=41,737); This is a truncated form of full-length human aggrecanase-2; made in house; host or cells: CHO cells; conditions: for inhibition at […]: @ 2500 nM; for Agg-2 FRET Median PCT INHIB: concentration not given
T1 sequence (Q9UNA0 262-628 limits assumed): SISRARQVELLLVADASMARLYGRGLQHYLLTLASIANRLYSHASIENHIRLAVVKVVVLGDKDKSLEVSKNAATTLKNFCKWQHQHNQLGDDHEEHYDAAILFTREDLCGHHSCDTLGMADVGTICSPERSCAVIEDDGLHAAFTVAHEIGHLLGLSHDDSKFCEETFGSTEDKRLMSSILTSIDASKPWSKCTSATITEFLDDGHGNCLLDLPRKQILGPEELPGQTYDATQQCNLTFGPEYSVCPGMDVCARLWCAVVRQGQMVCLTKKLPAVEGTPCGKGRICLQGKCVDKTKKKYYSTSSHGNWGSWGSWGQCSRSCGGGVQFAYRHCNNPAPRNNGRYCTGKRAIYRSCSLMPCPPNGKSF
Procedure: A continuous assay was used in which the substrate was a synthetic peptide containing a fluorescent group (o-aminobenzyl, Abz), which was quenched by energy transfer to a 2,4-dinitrophenyl group (Dnp). The buffer used in this assay was 50 mM HEPES, pH 7.5, 100 mM NaCl, 5 mM CaCl2, 0.1% CHAPS, 5% glycerol. The source of enzyme was purified recombinant human Aggrecanase-2 Agg2-Phe628 (MW=41,737). This is a truncated form of full-length human aggrecanase-2 that was expressed in CHO cells and purified. The final concentration of Agg2-Phe628 was 0.5 μg/ml. […] It is a synthetic peptide that is designed after a portion of brevican, one of the naturally occurring substrates of Aggrecanase-2, of the sequence Abz-[…]-Dap(Dnp)-KK—NH2 (mass=1740). The concentration of this substrate stock was spectrophotometrically determined using the extinction coefficient at 354 nm of 18,172 M^−1cm^−1. […] The final concentration of substrate in the assay was 25 μM.
Test compounds (in duplicate) were serially diluted from 2 mM to 0.01 μM in 100% DMSO. The total reaction volume was 100 μl. The buffer and enzyme were added first followed by addition of 10× inhibitor from the dilution plate. Enzyme and buffer alone samples were included in order to obtain the maximal rate of substrate cleavage. […] Then substrate was added, mixed and the reaction monitored for 40 min at 30° C. in kinetic mode using λex: 340 nm and % λem: 420 (GeminiXS Molecular Devices).

Agg-1 = target: T2, Agg-1 (Homo sapiens, UniProt O75173); test: Agg-1 FRET assay; format: biochemical; conditions: for IC50: read-out: Agg1 IC50
T2 sequence (O75173 213-837): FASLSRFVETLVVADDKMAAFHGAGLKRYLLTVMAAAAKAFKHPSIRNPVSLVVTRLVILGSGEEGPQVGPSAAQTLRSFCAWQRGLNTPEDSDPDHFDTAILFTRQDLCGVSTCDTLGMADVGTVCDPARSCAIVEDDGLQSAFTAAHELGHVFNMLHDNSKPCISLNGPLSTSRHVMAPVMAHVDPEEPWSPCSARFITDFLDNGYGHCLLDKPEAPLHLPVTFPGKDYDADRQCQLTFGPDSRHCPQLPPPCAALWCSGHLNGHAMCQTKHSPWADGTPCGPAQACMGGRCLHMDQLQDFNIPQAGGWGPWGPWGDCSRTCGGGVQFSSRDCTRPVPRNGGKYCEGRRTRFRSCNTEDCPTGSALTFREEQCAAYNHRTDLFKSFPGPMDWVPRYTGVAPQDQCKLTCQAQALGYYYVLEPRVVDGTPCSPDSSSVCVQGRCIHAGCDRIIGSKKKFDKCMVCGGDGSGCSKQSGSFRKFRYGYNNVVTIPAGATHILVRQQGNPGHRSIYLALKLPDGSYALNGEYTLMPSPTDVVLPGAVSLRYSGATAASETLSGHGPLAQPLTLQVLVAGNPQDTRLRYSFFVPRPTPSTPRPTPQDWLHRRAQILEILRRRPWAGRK
Description: The Agg-1/Agg-2 FRET data for N-[(8-hydroxyquinolin-2-yl)(phenyl)methyl]-2-phenoxyacetamide and 2-{[(phenoxyacetyl)amino](phenyl)methyl}quinolin-8-yl phenoxyacetate is presented in Table 1.

[2] = read-out: Agg-2 FRET Median IC50

Work on O=C(CNCc1cccc2ccccc12)NC(c1ccccc1Cl)c1cc(Cl)c2cccnc2c1O (centres unmarked) [Example 231, N-[(5-chloro-8-hydroxyquinolin-7-yl)(2-chlorophenyl)methyl]-N2-(1-naphthylmethyl)glycinamide] yielded an IC50 ([1]; read-out: Agg2 IC50) of 1.37 µM and an IC50 (Agg-1) of roughly 20 µM.

Molecule O=C(Cc1ccccc1)NC(/C=C/c1ccccc1)c1cc(Cl)c2cccnc2c1O (centres unmarked) [N-[(2E)-1-(5-chloro-8-hydroxyquinolin-7-yl)-3-phenylprop-2-en-1-yl]-2-phenylacetamide] has an IC50 ([1]; read-out: Agg2 IC50) of 50 µM, an IC50 [1, 2] of 50 µM and an inhibition at 20 µM (Agg-1; @ 20000 nM, read-out: Agg1 %) of 45%.

In the case of Cn1cc(C(NC(=O)COc2ccccc2)c2cc(Cl)c3cccnc3c2O)c2ccccc21 (centres unmarked) [N-[(5-chloro-8-hydroxyquinolin-7-yl)(1-methyl-1H-indol-3-yl)methyl]-2-phenoxyacetamide], the inhibition at […] [1] is reported as 53% and the inhibition at 11 µM (Agg-1; @ 11000 nM, read-out: Agg1 %) is reported as 46%.

Molecule O=C(COc1ccccc1)NC(c1ccccc1)c1cc(Cl)c2cccnc2c1O (centres unmarked) [N-[(5-chloro-8-hydroxyquinolin-7-yl)(phenyl)methyl]-2-phenoxyacetamide] has an IC50 (Agg-1) greater than 22 µM.

For CC(C)(C)c1ccc(NCC(=O)NC(c2ccccc2Cl)c2cc(Cl)c3cccnc3c2O)cc1 (centres unmarked) [Example 20, N^2-(4-tert-butylphenyl)-N^1-[(5-chloro-8-hydroxyquinolin-7-yl)(2-chlorophenyl)methyl]glycinamide], the “Agg-2 FRET Median PCT INHIB” value [1] was 54%.

Molecule COc1ccc(OCC(=O)NC(c2ccccc2)c2ccc3cccnc3c2O)cc1 (centres unmarked) [N-[(8-hydroxyquinolin-7-yl)(phenyl)methyl]-2-(4-methoxyphenoxy)acetamide] has an IC50 [1, 2] of 3.34 µM.

In the case of Cc1cc(NCC(=O)NC(c2ccccc2Cl)c2cc(Cl)c3cccnc3c2O)ccc1Cl (centres unmarked) [Example 19, N^1-[(5-chloro-8-hydroxyquinolin-7-yl)(2-chlorophenyl)methyl]-N^2-(4-chloro-3-methylphenyl)glycinamide], the IC50 [1, 2] is reported as 1.48 µM.

In the case of O=C(COc1ccccc1)NC(c1ccccc1O)c1cc(Cl)c2cccnc2c1O (centres unmarked) [N-[(5-chloro-8-hydroxyquinolin-7-yl)(2-hydroxyphenyl)methyl]-2-phenoxyacetamide], the inhibition at […] [1] is reported as 62%.

CC(=O)Nc1ccc(NCC(=O)NC(c2cccc([N+](=O)[O-])c2)c2cc(Cl)c3cccnc3c2O)cc1 (centres unmarked) [Example 31, N^2-[4-(acetylamino)phenyl]-N^1-[(5-chloro-8-hydroxyquinolin-7-yl)(3-nitrophenyl)methyl]glycinamide] gave an IC50 [1, 2] of 2.77 µM.

With O=C(COc1ccccc1)NC(c1ccccc1F)c1cc(Cl)c2cccnc2c1O (centres unmarked) [N-[(5-chloro-8-hydroxyquinolin-7-yl)(2-fluorophenyl)methyl]-2-phenoxyacetamide] the inhibition at 22.2 µM (Agg-1; @ 22200 nM, read-out: Agg1 %) was 46%.

Molecule O=C(COc1ccccc1)NC(c1ccc(Cl)cc1)c1ccc2cccnc2c1O (centres unmarked) [N-[(4-chlorophenyl)(8-hydroxyquinolin-7-yl)methyl]-2-phenoxyacetamide] has an IC50 [1, 2] of 3.38 µM.

O=C(COc1ccc(Cl)cc1)NC(c1ccccc1)c1cc(Cl)c2cccnc2c1O (centres unmarked) [N-[(5-chloro-8-hydroxyquinolin-7-yl)(phenyl)methyl]-2-(4-chlorophenoxy)acetamide] showed an IC50 [1, 2] of 1.02 µM.

Molecule O=C(COc1ccccc1)NC(c1ccc([N+](=O)[O-])cc1)c1ccc2cccnc2c1O (centres unmarked) [N-[(8-hydroxyquinolin-7-yl)(4-nitrophenyl)methyl]-2-phenoxyacetamide] has an IC50 [1, 2] of 2.39 µM.

Work on O=C(COc1ccccc1)NC(c1ccccc1)c1cc([N+](=O)[O-])c2cccnc2c1O (centres unmarked) [N-[(8-hydroxy-5-nitroquinolin-7-yl)(phenyl)methyl]-2-phenoxyacetamide] yielded an IC50 (Agg-1) of 19.3 µM.

For Cc1ccc(C)c(C(NC(=O)COc2ccccc2)c2cc(Cl)c3cccnc3c2O)c1 (centres unmarked) [Example 37, N-[(5-chloro-8-hydroxyquinolin-7-yl)(2,5-dimethylphenyl)methyl]-2-phenoxyacetamide], the IC50 [1, 2] was 1.49 µM.

O=C(CNc1cccnc1)NC(c1ccccc1Cl)c1cc(Cl)c2cccnc2c1O (centres unmarked) [Example 18, N^1-[(5-chloro-8-hydroxyquinolin-7-yl)(2-chlorophenyl)methyl]-N^2-pyridin-3-ylglycinamide] gave an IC50 [1, 2] of 16.9 µM.

In the case of C=CCOc1ccc(C(NC(=O)COc2ccccc2)c2cc(Cl)c3cccnc3c2O)cc1 (centres unmarked) [N-[[4-(allyloxy)phenyl](5-chloro-8-hydroxyquinolin-7-yl)methyl]-2-phenoxyacetamide], the inhibition at 22 µM (Agg-1; @ 22000 nM, read-out: Agg1 %) is reported as 52%.

Cc1ccc(C(NC(=O)CCCc2ccccc2)c2cc(Cl)c3cccnc3c2O)cc1 (centres unmarked) [N-[(5-chloro-8-hydroxyquinolin-7-yl)(4-methylphenyl)methyl]-4-phenylbutanamide] was tested, and the “Agg-2 FRET Median PCT INHIB” value [1] was 41%.

In the case of Cc1ccc(C(NC(=O)COc2ccccc2)c2cc(Cl)c3cccnc3c2O)c(C)c1 (centres unmarked) [N-[(5-chloro-8-hydroxyquinolin-7-yl)(2,4-dimethylphenyl)methyl]-2-phenoxyacetamide], the “Agg-2 FRET Median PCT INHIB” value [1] is reported as 60%.

For CC(C)(C)c1ccc(OCC(=O)NC(c2cccc(F)c2)c2cc(Cl)c3cccnc3c2O)cc1 (centres unmarked) [2-(4-tert-butylphenoxy)-N-[(5-chloro-8-hydroxyquinolin-7-yl)(3-fluorophenyl)methyl]acetamide], the “Agg-2 FRET Median PCT INHIB” value [1] was 43%.

Cc1ccc(C(NC(=O)CNc2cccnc2)c2cc(Cl)c3cccnc3c2O)cc1 (centres unmarked) [Example 22, N^1-[(5-chloro-8-hydroxyquinolin-7-yl)(4-methylphenyl)methyl]-N^2-pyridin-3-ylglycinamide] gave an IC50 [1, 2] of 9.79 µM.

In the case of “N-[(8-hydroxyquinolin-7-yl)(4-methoxyphenyl)methyl]-2-(4-phenoxyphenoxy)acetamide [Example 76]”, the IC50 [1, 2] is reported as 3.22 µM.

With CN(CC(=O)NC(c1cccc([N+](=O)[O-])c1)c1cc(Cl)c2cccnc2c1O)c1ccccc1 (centres unmarked) [Example 62, N^1-[(5-chloro-8-hydroxyquinolin-7-yl)(3-nitrophenyl)methyl]-N^2-methyl-N^2-phenylglycinamide] the IC50 [1, 2] was 0.559 µM.

Work on Cc1ccc(C(NC(=O)CN(C)Cc2ccccc2)c2cc(Cl)c3cccnc3c2O)cc1 (centres unmarked) [Example 59, N^2-benzyl-N^1-[(5-chloro-8-hydroxyquinolin-7-yl)(4-methylphenyl)methyl]-N^2-methylglycinamide] yielded an IC50 [1, 2] of 1.28 µM.

O=C(COc1ccccc1)NC(c1ccc([N+](=O)[O-])cc1)c1cc(Cl)c2cccnc2c1O (centres unmarked) [N-[(5-chloro-8-hydroxyquinolin-7-yl)(4-nitrophenyl)methyl]-2-phenoxyacetamide] was tested, and the IC50 (Agg-1) was greater than 20 µM.

With O=C(CNc1cccnc1)NC(c1cccc(F)c1)c1cc(Cl)c2cccnc2c1O (centres unmarked) [Example 32, N^1-[(5-chloro-8-hydroxyquinolin-7-yl)(3-fluorophenyl)methyl]-N^2-pyridin-3-ylglycinamide] the IC50 [1, 2] was 15.1 µM.

With O=C(COc1ccccc1)NC(c1cc([N+](=O)[O-])ccc1Cl)c1cc(Cl)c2cccnc2c1O (centres unmarked) [N-[(5-chloro-8-hydroxyquinolin-7-yl)(2-chloro-5-nitrophenyl)methyl]-2-phenoxyacetamide] the IC50 [1, 2] was 0.523 µM.

With O=C(COc1ccccc1)NC(c1ccccc1Cl)c1cc([N+](=O)[O-])c2cccnc2c1O (centres unmarked) [N-[(2-chlorophenyl)(8-hydroxy-5-nitroquinolin-7-yl)methyl]-2-phenoxyacetamide] the IC50 (Agg-1) was 11.4 µM.
